# Assay results from patent US9345734B2, “Achillea fragrantissima extract, method for preparing Achillea fragrantissima extract and method for treating chronic myeloid leukemia” (King Saud University, priority 2013, dated 2016).
# Test system: K562 human leukemia cells
# Assay: Leukemia K562 cell model in rats, survival after onset of circulating blast cells
# Assay type: in vivo
# Conditions: oral 30 mg/kg, treated for 7 to 14 days
# Experimental: Male Waster rats (220-230 g) were used. Rats were maintained in cages with raised floors of wide wire mesh to prevent coprophagy. All animals were kept under uniform and controlled conditions of temperature and light/dark (12/12 h) cycles. The animals were fed with standard pelleted diet and water ad libitum and were left one week for acclimatization to animal room condition.
# A known weight of total methanol extract and each of the isolated compounds (P1-P5) and the reference drug (TKIs) was dissolved in 3% v/v Tween 80 to produce solutions of 10% concentration.
# In absence of LD50 values for the total methanol extract and each of the isolated compounds, an experimental dose of 100/mg kg was selected in this investigation to be given orally to rats. The reference drug, TKIs, were given orally at a certain dose (30 mg/kg). This dose was calculated by converting the therapeutic dose that used in human to rat's dose according to the table of Paget & Barnes (1964). […]
# Rats were divided into 8 equal groups. […] After transplantation of the K562 cells, animals were monitored for the presence of circulating blast cells by blood sampling from the retro-orbital plexus according to Ratajczak et al. (1992) method.
# After 5 weeks, leukemic cell transplantation in animals was monitored for the development of overt leukemia by retro-orbital plexus bleeding thrice weekly. […]
compound,measurement,value
"Cc1ccc(NC(=O)c2ccc(CN3CCN(C)CC3)cc2)cc1Nc1nccc(-c2cccnc2)n1 [TKIs, 4-[(4-methyl-1-piperazinyl)methyl]-N-[4-methyl-3-[[4-(3-pyridinyl)-2-pyrimidinyl]aminophenyl]benzamide methanesulfonate]",survival compared with control animals,not statistically different from the control animals
